Assay results published in patent publication US11815508B2, “Dynamic BH3 profiling” (Dana-Farber Cancer Institute, Inc., priority 2012, dated 2023).

Legend:
Type in all cases: cell-based, human
[1] = system: K562; test: Dynamic BH3 profiling, K562 cells; conditions: for change in depolarization caused by the BIM BH3 peptide following drug treatment: drug exposure 16 hours
Method: (§1) The change in depolarization caused by the BIM BH3 peptide following drug treatment is shown. […] Imatinib is a positive control.
(§2) In various methods, sensitivity of a cell to an agent is determined. The methods include contacting a test cell with a test agent. Cell sensitivity to the test agent is determined by contacting the test cell or test cellular component (e.g., mitochondria) exposed to the test agent with standardized concentration of a panel of BH3 domain peptide from the pro-apoptotic BCL-2 family.
(§3) The cell or cellular component is a cancer cell or a cell that is suspected of being cancerous. The cell is permeabilized to permit the BH3 peptides access to the mitochondria. Cells are permeabilized by methods known in the art. For example, the cell are permeabilized by contacting the cell with digitonin, or other art-recognized detergents and cell-permeabilization agents.
(§4) After the cells are permeabilized the cells are treated with the BH3 peptides or test agents. After the cell is treated, mitochondrial outer membrane permeabilization is measured. Outer membrane permeabilization is measured by a number of methods. For example outer membrane permeabilization is measured by loss of mitochondrial membrane potential. Loss of mitochondrial membrane potential is measured for example by treating the cells with a potentiometric or radiometric dye.

[2] = system: K562; test: Cell death by Annexin V/PI, K562 cells; conditions: drug exposure 72 hours
[3] = system: Ku812; test: Dynamic BH3 profiling, Ku812 cells
Method: as §1, §2, §3, §4

[4] = system: Ku812; test: Cell death, Ku812 cells
[5] = system: PC9; test: Dynamic BH3 profiling, NSCLC cell line PC9; conditions: gefitinib 1 μM, WZ4002 100 nM, 16 hours; BH3 peptide Bim at low concentrations
Method: (§5) In various methods, sensitivity of a cell to an agent is determined. The methods include contacting a test cell with a test agent. Cell sensitivity to the test agent is determined by contacting the test cell or test cellular component (e.g., mitochondria) exposed to the test agent with standardized concentration of a panel of BH3 domain peptide from the pro-apoptotic BCL-2 family. […] The cell or cellular component is a cancer cell or a cell that is suspected of being cancerous. The cell is permeabilized to permit the BH3 peptides access to the mitochondria. Cells are permeabilized by methods known in the art. For example, the cell are permeabilized by contacting the cell with digitonin, or other art-recognized detergents and cell-permeabilization agents. After the cells are permeabilized the cells are treated with the BH3 peptides or test agents. After the cell is treated, mitochondrial outer membrane permeabilization is measured. Outer membrane permeabilization is measured by a number of methods. For example outer membrane permeabilization is measured by loss of mitochondrial membrane potential. Loss of mitochondrial membrane potential is measured for example by treating the cells with a potentiometric or radiometric dye. Three different cell lines were used: PC9, PC9 gefitinib resistant (PC9GR, including the mutation T790M) and PC9GR resistant to WZ4002 (PC9WZR). […]

[6] = system: PC9GR; test: Dynamic BH3 profiling, PC9 gefitinib resistant; conditions: gefitinib 1 μM, WZ4002 100 nM, 16 hours; BH3 peptide Bim at low concentrations
Method: as §5

[7] = system: PC9WZR; test: Dynamic BH3 profiling, PC9GR resistant to WZ4002; conditions: gefitinib 1 μM, WZ4002 100 nM, 16 hours; BH3 peptide Bim at low concentrations
Method: as §5

[8] = system: SuDHL4 cell line; test: miBH3 profile of the SuDHL4 cell line; conditions: response to BH3 peptides
Method: FIGS. 14A-14B are a series of bar graphs showing the correlation of miBH3 profiles with known profiles.
Dynamic BH3 profiling can be accomplished at the single cell level by immobilizing cells on a solid surface. Optionally the solid surface is polyamine or poly-lysine coated. Immobilized cells are permeabilized as described above. The cells are then contacted with BH3 peptides and/or test agents. After the cells have been treated for a predetermined period of time such as 45-90 minutes, the cells are fixed and permeabilized by methods known in the art. For example the cells are fixed with formaldehyde and further permeabilized with methanol or triton x-100. Outer membrane permeabilization is determined intracellular staining for molecules from the mitochondrial inter-membrane space and a mitrochondrial marker. Examples of molecules that can be measured include cytochrome c and SMAC/Diablo, Omi, adenylate kinase-2 or apoptotic-inducing factor (AIF). Mitochondrial markers include MnSOD. Stained cells can be counterstained with nuclear stains such as DAPI. Optionally other intracellular and extracellular markers can be measured. Analysis of the cells can be manually accomplished using a microscope or automated for example by using software such as Cellprofiler to locate nuclei.
MicroBH3 (miBH3) is a BH3 profiling method where the measurement of the mitochondrial effect of BH3 peptides have on individual cells by microscopy. To accomplish this, cells are immobilized on polyamine or poly-lysine coated surfaces and treated with low concentrations of digitonin in a mitochondrial buffer to permeabilize the plasma membrane and grant access to the mitochondria without cell disruption. […] Fixed cells by this method can be readily stopped at the fixation step and can be analyzed weeks after acquisition as well as readily re-analyzed if needed.

Compound: Cn1c(=O)n(-c2ccc(C(C)(C)C#N)cc2)c2c3cc(-c4cnc5ccccc5c4)ccc3ncc21 [BEZ235]
- change in depolarization caused by the BIM BH3 peptide following drug treatment [1]: significant changes
- cell death response (Annexin V/PI) [2]: unexpected killing

Compound: Cc1sc2c(c1C)C(c1ccc(Cl)cc1)=N[C@@H](CC(=O)OC(C)(C)C)c1nnc(C)n1-2 [JQ1]
- priming by dynamic BH3 profiling ([3]; epigenetic modifying agents, imatinib positive control): increases priming
- cell death [4]: induce cell death

Compound: COc1cc(N2CCC(N3CCN(C)CC3)CC2)ccc1Nc1ncc(Cl)c(Nc2ccccc2S(=O)(=O)C(C)C)n1 [TAE-684]
- change in depolarization caused by the BIM BH3 peptide following drug treatment [1]: significant changes
- cell death response (Annexin V/PI) [2]: unexpected killing

Compound: C=CC(=O)Nc1cccc(Oc2nc(Nc3ccc(N4CCN(C)CC4)cc3OC)ncc2Cl)c1 [WZ4002]
- sensitivity (change in priming) by dynamic BH3 profiling [5]: sensitive
- sensitivity (change in priming) by dynamic BH3 profiling [6]: sensitive
- sensitivity (change in priming) by dynamic BH3 profiling [7]: insensitive

Compound: COc1cc2ncnc(Nc3ccc(F)c(Cl)c3)c2cc1OCCCN1CCOCC1 [gefitinib]
- sensitivity (change in priming) by dynamic BH3 profiling [5]: sensitive
- sensitivity (change in priming) by dynamic BH3 profiling [6]: insensitive
- sensitivity (change in priming) by dynamic BH3 profiling [7]: insensitive

Compound: Cc1ccc(NC(=O)c2ccc(CN3CCN(C)CC3)cc2)cc1Nc1nccc(-c2cccnc2)n1 [imatinib]
- change in depolarization caused by the BIM BH3 peptide following drug treatment [1]: significant changes
- priming, several BH3 peptides ([1]; imatinib 1 μM, 16 h and 8 h): increase in priming
- priming, several BH3 peptides ([3]; imatinib 1 μM, 16 h and 8 h): increase in priming
- cell death [4]: induce cell death

Compound: EQWAREIGAQLRRMADDLNA [PUMA]
- release of cytochrome c and loss of correlation between cytochrome c and MnSOD channels [8]: Release of cytochrome c and loss of correlation

Compound: HQAEVQIARKLQLIADQFHR [BMF]
- release of cytochrome c and loss of correlation between cytochrome c and MnSOD channels [8]: Release of cytochrome c and loss of correlation

Compound: LWAAQRYGRELRRMSDEFEGSFKGL [BAD]
- release of cytochrome c and loss of correlation between cytochrome c and MnSOD channels [8]: Release of cytochrome c and loss of correlation
